Patent publication US11174230B2, “(E)-4-(4-acrylamidophenoxy)-N-methylpicolinamide conjugates as potential anticancer agents” (Council of Scientific & Industrial Research, priority 2016, dated 2021)

Tests used:
Conditions in all cases: after 48 h of drug treatment, average of three individual experiments
[1] = tested on: A549; assay: MTT cytotoxicity assay, A549 lung cancer cells; assay type: cell-based
Excerpt: (§1) The (E)-4-(4-acrylamidophenoxy)-N-methylpicolinamide conjugates of general formulae 6a-6z and 7a-7aj have been evaluated for their cytotoxicity in selected human cancer cell lines i.e., lung (A549), prostate (DU-145), ovarian (SKOV3) and liver (HepG2) using MTT assay and the values obtained were compared to a standard drug sorafenib, with the concentration (treatment done at ranging from 10^−4 to 10^−8 M) of the compound produces to 50% inhibition of cell growth (IC50) as shown in Table 1. […] The IC50 values (in μM) for compounds 6b, 6c, 6d, 6e, 6g, 6l, 6m, 6o, 6p, 6q, 6t, 6z, 7b and 7g have been illustrated in Table 1.

[2] = tested on: DU145; assay: MTT cytotoxicity assay, DU145 prostate cancer cells; assay type: cell-based
Excerpt: as §1

[3] = tested on: HepG2; assay: MTT cytotoxicity assay, HepG2 liver cancer cells; assay type: cell-based, human
Excerpt: as §1

[4] = tested on: SKOV3; assay: MTT cytotoxicity assay, SKOV3 ovarian cancer cells; assay type: cell-based
Excerpt: as §1

SMILES: CNC(=O)c1cc(Oc2ccc(NC(=O)/C=C/c3ccc([N+](=O)[O-])cc3)cc2)ccn1 [Compound 6z, (E)-N-methyl-4-(4-(3-(4-nitrophenyl)acrylamido)phenoxy)picolinamide]
- IC50 ([1]; A549, Human lung cancer): 30.1 ± 0.28 µM
- IC50 ([2]; DU-145, Human prostate cancer): 28.7 ± 0.36 µM
- IC50 ([3]; Homo sapiens, HepG2, 48 h): 8 to 13 µM
- IC50 [3]: 12.2 ± 0.22 µM

SMILES: CNC(=O)c1cc(Oc2ccc(NC(=O)/C=C/c3ccc(Cl)cc3)cc2)ccn1 [Compound 6l, (E)-4-(4-(3-(4-chlorophenyl)acrylamido)phenoxy)-N-methylpicolinamide]
- IC50 ([2]; DU-145, Human prostate cancer): 17.9 ± 0.24 µM
- IC50 ([4]; SK-OV-3, Human ovarian cancer): 12.6 ± 0.28 µM
- IC50 ([3]; Homo sapiens, HepG2, 48 h): 8 to 13 µM
- IC50 [3]: 9.6 µM

SMILES: CNC(=O)c1cc(Oc2ccc(NC(=O)Nc3ccc(Cl)c(C(F)(F)F)c3)cc2)ccn1 [Sorafenib, reference compound]
- IC50 ([1]; Human lung cancer): 6.1 ± 0.18 µM
- IC50 ([2]; Human prostate cancer): 6.5 ± 0.22 µM
- IC50 ([4]; Human ovarian cancer): 9.5 ± 0.12 µM
- IC50 [3]: 14.5 µM

SMILES: CNC(=O)c1cc(Oc2ccc(NC(=O)/C=C/c3ccc(C(F)(F)F)cc3)cc2)ccn1 [Compound 6t, (E)-N-methyl-4-(4-(3-(4-(trifluoromethyl)phenyl)acrylamido)phenoxy)picolinamide]
- IC50 ([1]; A549, Human lung cancer): 22.3 ± 0.22 µM
- IC50 ([3]; Homo sapiens, HepG2, 48 h): 8 to 13 µM
- IC50 [3]: 8.2 µM

SMILES: CNC(=O)c1cc(Oc2ccc(NC(=O)/C=C/c3cc(OC)ccc3OC)cc2)ccn1 [Compound 6e, (E)-4-(4-(3-(2,5-dimethoxyphenyl)acrylamido)phenoxy)-N-methylpicolinamide]
- IC50 ([2]; DU-145, Human prostate cancer): 29.5 ± 0.26 µM
- IC50 ([3]; Homo sapiens, HepG2, 48 h): 8 to 13 µM
- IC50 [3]: 10.1 µM

SMILES: CNC(=O)c1cc(Oc2ccc(NC(=O)/C=C/c3ccc(OC)cc3)cc2)ccn1 [Compound 6b, (E)-4-(4-(3-(4-methoxyphenyl)acrylamido)phenoxy)-N-methylpicolinamide]
- IC50 ([4]; SK-OV-3, Human ovarian cancer): 10.6 ± 0.32 µM
- IC50 ([3]; Homo sapiens, HepG2, 48 h): 8 to 13 µM
- IC50 [3]: 9.5 µM

SMILES: CNC(=O)c1cc(Oc2ccc(NC(=O)/C=C/c3ccco3)cc2)ccn1 [Compound 7b, (E)-4-(4-(3-(furan-2-yl)acrylamido)phenoxy)-N-methylpicolinamide]
- IC50 ([3]; Homo sapiens, HepG2, 48 h): 8 to 13 µM
- IC50 [3]: 10.2 µM

SMILES: CNC(=O)c1cc(Oc2ccc(NC(=O)/C=C/c3ccc(F)cc3F)cc2)ccn1 [Compound 6p, (E)-4-(4-(3-(2,4-difluorophenyl)acrylamido)phenoxy)-N-methylpicolinamide]
- IC50 ([1]; A549, Human lung cancer): 49.4 ± 0.54 µM
- IC50 ([3]; Homo sapiens, HepG2, 48 h): 8 to 13 µM
- IC50 [3]: 13.1 ± 0.26 µM

SMILES: CNC(=O)c1cc(Oc2ccc(NC(=O)/C=C/c3ccc(F)cc3)cc2)ccn1 [Compound 6o, (E)-4-(4-(3-(4-fluorophenyl)acrylamido)phenoxy)-N-methylpicolinamide]
- IC50 ([3]; Homo sapiens, HepG2, 48 h): 8 to 13 µM
- IC50 [3]: 12.5 ± 0.18 µM

SMILES: CNC(=O)c1cc(Oc2ccc(NC(=O)/C=C/c3cc(OC)c(OC)c(OC)c3)cc2)ccn1 [Compound 6d, (E)-N-methyl-4-(4-(3-(3,4,5-trimethoxyphenyl)acrylamido)phenoxy)picolinamide]
- IC50 ([2]; DU-145, Human prostate cancer): 21.1 ± 0.18 µM
- IC50 ([3]; Homo sapiens, HepG2, 48 h): 8 to 13 µM
- IC50 [3]: 10.2 µM

SMILES: CNC(=O)c1cc(Oc2ccc(NC(=O)/C=C/c3cccc(O)c3)cc2)ccn1 [Compound 6g, (E)-4-(4-(3-(3-hydroxyphenyl)acrylamido)phenoxy)-N-methylpicolinamide]
- IC50 ([4]; SK-OV-3, Human ovarian cancer): 12 ± 0.11 µM
- IC50 ([3]; Homo sapiens, HepG2, 48 h): 8 to 13 µM
- IC50 [3]: 10.9 ± 0.22 µM

SMILES: CNC(=O)c1cc(Oc2ccc(NC(=O)/C=C/c3ccc(F)c(F)c3)cc2)ccn1 [Compound 6q, (E)-4-(4-(3-(3,4-difluorophenyl)acrylamido)phenoxy)-N-methylpicolinamide]
- IC50 ([4]; SK-OV-3, Human ovarian cancer): 11.2 ± 0.26 µM
- IC50 ([3]; Homo sapiens, HepG2, 48 h): 8 to 13 µM
- IC50 [3]: 11.1 ± 0.14 µM

SMILES: CNC(=O)c1cc(Oc2ccc(NC(=O)/C=C/c3ccc(Cl)c(Cl)c3)cc2)ccn1 [Compound 6m, (E)-4-(4-(3-(3,4-dichlorophenyl)acrylamido)phenoxy)-N-methylpicolinamide]
- IC50 ([1]; A549, Human lung cancer): 9.5 ± 0.22 µM
- IC50 ([2]; DU-145, Human prostate cancer): 23.3 ± 0.28 µM
- IC50 ([3]; Homo sapiens, HepG2, 48 h): 8 to 13 µM
- IC50 [3]: 12.4 ± 0.32 µM

SMILES: CNC(=O)c1cc(Oc2ccc(NC(=O)/C=C/c3cccs3)cc2)ccn1 [Compound 7g, (E)-N-methyl-4-(4-(3-(thiophen-2-yl)acrylamido)phenoxy)picolinamide]
- IC50 ([1]; A549, Human lung cancer): 24.1 ± 0.44 µM
- IC50 ([2]; DU-145, Human prostate cancer): 12.2 ± 0.26 µM
- IC50 ([3]; Homo sapiens, HepG2, 48 h): 8 to 13 µM
- IC50 [3]: 13.2 ± 0.11 µM

SMILES: CNC(=O)c1cc(Oc2ccc(NC(=O)/C=C/c3cccc(OC)c3OC)cc2)ccn1 [Compound 6c, (E)-4-(4-(3-(2,3-dimethoxyphenyl)acrylamido)phenoxy)-N-methylpicolinamide]
- IC50 ([3]; Homo sapiens, HepG2, 48 h): 8 to 13 µM
- IC50 [3]: 12.4 ± 0.16 µM
